Data as given in patent US20090238852A1, “METHODS FOR CONTROLLING INTRACELLULAR CALCIUM LEVELS ASSOCIATED WITH AN ISCHEMIC EVENT” (University of Utah Research Foundation, priority 2008, published 2009).
Where two headings read alike, the source gives them in different places.

Experiments:
[1] = system: anti-coagulant activity (USP); conditions: product of the procedure of U.S. Pat. No. 5,990,097; cited from earlier work
[2] = in vivo
Method: A study was performed in 38 volunteer human subjects to assess the safety of escalating bolus doses of 2-O, 3-O desulfated heparin (ODSH). The study was a Phase I, randomized, double-blind, dose-escalation study with a single-day treatment period. Subjects were between the ages of 18 and 45, were not pregnant, and were normal in body weight. They all had normal coagulation function and hemoglobin values at baseline.
Two subjects also received an injection of fully anticoagulated unfractionated heparin for comparison. ODSH dose groups were run in a series, and safety and tolerance data were evaluated prior to the start of the next dose level (4, 8 12, 16 and 20 mg/kg bolus intravenous doses). Twenty eight (28) subjects randomly received ODSH and 9 subjects were randomized to receive placebo, with an additional two subjects receiving commercially available unfractionated heparin.
For each bolus dose, ODSH as a 50 mg/mL formulation was diluted with normal saline and a total volume of 50 ml was infused over 15 minutes containing the calculated amount of ODSH the subject was to receive. Placebo consisted of 50 mL of normal saline infused over 15 minutes. For subjects receiving heparin, 5,000 units (approximately 0.5 mg/kg) of heparin was diluted into 50 ml of normal saline and infused over 15 minutes.
Immediately before infusion and beginning 7 minutes after the start of each infusion, blood was drawn at periodic times for 24 hours to monitor the effect of infusion on the following laboratory studies: activated partial thromboplastin time (aPTT); prothrombin time (PT); activated clotting time (ACT); and ODSH plasma level. Serum chemistries and a complete blood count were checked immediately before infusion and at eight (8) and twenty-four (24) hours later. Using values for aPTT and ODSH levels, pharmacokinetic parameters were calculated by noncompartmental methods using a commercial software program (PhAST 2.3-001). The following pharmacokinetic parameters were calculated: • a) Maximum measured plasma concentration (Cmax); • b) First-order terminal elimination rate constant (Kel), calculated from a semi-log plot of the serum concentration versus time curve; this parameter was calculated by linear least-square regression analysis using the maximum number of points in the terminal log-linear phase (e.g., 3 or more non-zero serum concentrations); • c) Time of the maximum measured drug plasma concentration (tmax); • d) The area under the plasma concentration versus time curve from time 0 to the last observation (AUC 0-t), calculated by the linear trapezoidal method; • e) The area under the plasma concentration versus time curve from time 0 to infinity (AUCinf), which was calculated as the sum of AUC 0-t plus the ratio of the last measurable serum concentration to the elimination rate constant; • f) First-order terminal elimination (t1/2), calculated as 0.693/Kel; • g) Total body clearance (CL), calculated as Dose/AUCinf, and • h) Total volume of distribution (Vdss), calculated as MRT×CL.

[3] = in vivo; remark: listed apart in the source
Method: A study was performed in eight (8) healthy adult male and female subjects to assess the effects of a bolus dose and 72 hour infusion of 2-O, 3-O desulfated heparin. The study was a Phase I study with a three day treatment period. Doses were adjusted to maintain an aPTT level of 40-45 seconds. Subjects were between the ages of 18 and 60, were not pregnant, and were normal in body weight. They all had normal coagulation function and hemoglobin values at baseline.
Subjects received an initial bolus of 8 mg/kg of ODSH over 15 minutes, followed by 72 hours continuous infusion beginning at 0.58 mg/kg/hr. For each subject ODSH as a 50 mg/ml formulation was diluted with normal saline and administered as a bolus infused over 15 minutes containing the calculated amount of ODSH the subject was to receive, followed by infusion of ODSH diluted in saline. The infusion dose was adjusted to maintain an aPTT of 40-45 seconds. Immediately before infusion and after the start of each infusion, blood was drawn at periodic times (over a total 72 hour period) to monitor the effect of infusion on the following laboratory studies: activated partial thromboplastin time (aPTT), prothrombin time (PT), activated clotting time (ACT), and ODSH plasma level. Serum chemistries and a complete blood count were checked immediately before infusion and again periodically for up to 240 hours later. Using values for aPTT and ODSH levels, pharmacokinetic parameters were calculated by noncompartmental methods using a commercial software program (PhAST 2.3-001). The following pharmacokinetic parameters were calculated as above: Cmax; Kel; tmax; AUC O-t; AUCinf, t1/2; CL; and Vdss.

[4] = system: platelets with HIT antibody
Method: The second technique employed was flow cytometric platelet analysis. In this functional test, platelets in whole blood are activated by heparin or heparin analog in the presence of heparin antibody in serum from a patient clinically diagnosed with HIT. Using flow cytometry, platelet activation was determined in two manners: by the formation of platelet microparticles and by the increase of platelet surface bound P-selectin.
Specifically, whole blood drawn by careful double-syringe technique was anticoagulated with hirudin (10 μg/ml final concentration). An aliquot of whole blood (50 μL) was immediately fixed in 1 ml 1% paraformaldehyde (gating control). […] Samples were analyzed on an EPICS XL flow cytometer (Beckman-Couter; Hialeah, Fla.) for forward angle (FALS) and side angle light scatter, and for FITC and PE (phycoerythrin) fluorescence. […]
Using the gating control sample, amorphous regions were drawn to include single platelets and platelet microparticles. Platelet microparticles were distinguished from platelets on the basis of their characteristic flow cytometric profile of cell size (FALS) and FITC fluorescence (CD61 platelet marker). […] Data was reported as a percentage of the total number of CD61-positive events analyzed.

[5] = system: rabbit ventricular myocytes; assay: [Na^+]i in paced myocytes exposed to ATX, no metabolic inhibition; assay type: cell-based; conditions: FIG. 9
Method: In these studies, intracellular calcium concentration [Ca^++]i was measured by flow cytometry. Measurement of isolated mouse and rabbit ventricular myocyte [Ca^2+]i and [Na^+]i by flow cytometry has been described (Zhang et al., J. Cardiovasc. Pharmacol. 51: 443-449 (2008); Li et al., J. Mol. Cell. Cardiol. 33: 2145-2155 (2001)). [Ca^++]i was measured with the Ca^++ sensitive fluorescent probe, Fluo 3-AM (Molecular Probes, Eugene, Oreg.), using a FACScan (Becton-Dickinson, MA). The cells were exposed to 4 μmol/L Fluo-3 AM for 30 min at 37° C. The cells were then separated into aliquots. […] Metabolic ischemia was accomplished by incubating cells in a glucose-free MKRBB solution (pH 7.40) containing 2 mmol/L sodium cyanide (NaCN) to impair mitochondrial and glycolytic generation of ATP. To reproduce the situation in the beating ischemic heart, during the period of metabolic ischemia, myocytes were placed in a 5-well chamber with equal volumes of myocyte suspensions from the same heart dissociation placed in each well. The chamber was water bathed to maintain temperature at 37° C. and bubbled with 5% CO2 in air to keep myocytes in suspension. Each well was fitted with platinum sheet electrodes on both sides for field stimulation. One chamber was constructed with a glass coverslip bottom so that myocytes can be observed microscopically to assess capture threshold. Placing electrodes were connected in series to a constant current pulse generator that delivers a 0.2 ampere pulse at 0.5 Hz. […] Approximately 2×10^3 myocytes were analyzed to calculate average emission fluorescence intensity in each sample. […] Only those cells with low fluorescence intensity at 670 nm (PI-negative cells or viable cells) were included in the comparative analysis of [Ca^++]i. The sample [Ca^2+]i values were calculated by Mn^2+ quenching (Sugishita et al, 2001) and [Na^+]i values by comparison with a standard curve of varied [Na^+]i versus Na Green fluorescence. […] Results were expressed as means±SEM. […]

## 2-O, 3-O desulfated heparin [ODSH]
[1]
  anti-coagulant activity: less than 10 USP units/mg
[2]; human, iv
  Mean clearance values, range over the dose groups: 0.172 to 0.257 mL/min/kg
  Mean elimination half-life values, range over the dose groups: 1.93 to 2.72 h
  Median tmax values, range over the dose groups: 0.37 to 0.88 h
[2]; human, iv, 4 mg/kg
  AUC 0-t: 307.2 µg·h/mL
  AUCinf: 415.2 µg·h/mL
  CL: 0.1709 ± 0.064973 mL/min/kg
  Cmax: 130.76 µg/mL
  MRT: 3.780 ± 1.6710 h
  Vdss: 0.03495 ± 0.011679 L/kg
  t1/2: 2.585 ± 1.1225 h
  tmax: 0.47 h
[2]; human, iv, 8 mg/kg
  AUC 0-t: 461.9 µg·h/mL
  AUCinf: 629.2 µg·h/mL
  CL: 0.2147 ± 0.039202 mL/min/kg
  Cmax: 163.74 µg/mL
  MRT: 2.775 ± 0.6087 h
  Vdss: 0.03513 ± 0.00658 L/kg
  t1/2: 1.933 ± 0.4537 h
  tmax: 0.37 h
[2]; human, iv, 12 mg/kg
  AUC 0-t: 619.1 µg·h/mL
  AUCinf: 1086.5 µg·h/mL
  CL: 0.1867 ± 0.036203 mL/min/kg
  Cmax: 179.28 µg/mL
  MRT: 3.894 ± 0.9516 h
  Vdss: 0.04212 ± 0.00317 L/kg
  t1/2: 2.724 ± 0.6667 h
  tmax: 0.88 h
[2]; human, iv, 16 mg/kg
  AUC 0-t: 886.9 µg·h/mL
  AUCinf: 1075.8 µg·h/mL
  CL: 0.25607 ± 0.067503 mL/min/kg
  Cmax: 285.38 µg/mL
  MRT: 3.287 ± 1.0560 h
  Vdss: 0.04725 ± 0.007944 L/kg
  t1/2: 2.261 ± 0.8548 h
  tmax: 0.50 h
[2]; human, iv, 20 mg/kg
  AUC 0-t: 1322.1 µg·h/mL
  AUCinf: 1638.7 µg·h/mL
  CL: 0.20877 ± 0.003483 mL/min/kg
  Cmax: 366.73 µg/mL
  MRT: 3.639 ± 0.6670 h
  Vdss: 0.04556 ± 0.008256 L/kg
  t1/2: 2.637 ± 0.4765 h
  tmax: 0.50 h
[2]
  ODSH plasma levels produced: > 300 µg/mL
[3]
  Platelet count, Day After Infusion: 261 ± 37 thousands/μL blood
  Platelet count, Day Before Infusion: 261 ± 40 thousands/μL blood
  Platelet count, Infusion Day 2: 258 ± 39 thousands/μL blood
  Platelet count, Infusion Day 3: 272 ± 42 thousands/μL blood
  ecchymosis: Mild ecchymosis was reported in one subject
  transient elevations in serum ALT and AST: observed in seven subjects
[4]
  platelet microparticle formation versus saline control: no level of platelet microparticle formation above that of the saline control incubations
[5]; ODSH 100 ug/ml with ATX 10 nM
  effect on ATX-induced increase in [Na^+]i: almost completely inhibited
[5]; ODSH 100 ug/ml, HEPES + pacing alone
  effect on [Na^+]i in the absence of ATX: reduced [Na^+]i in myocytes in the absence of ATX but to a much smaller extent
